pEC50: −log10 of the molar value.
Columns and labels:
[1] = target: T1, GPR40 (Homo sapiens, UniProt O14842); test: Cell-based aequorin assay (CHO cells stably expressing GPR40 and aequorin); set-up: expressed in transfected cells; host or cells: CHO cells stably transfected with GPR40 and aequorin; settings: activation of human GPR40, CHO cells, 0.01% HSA
Method in brief: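 CHO cells stably co-expressing GPR40 and aequorin, loaded with coelenterazine (1 ug/mL, 2 h, room temperature) in H/HBSS with 20 mM Hepes and 0.01% fatty acid-free HSA. Serially diluted compounds added; luminescence recorded over 20 s. EC50 from dose-response of maximum relative light units.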

[2] = target: T1, GPR40; test: Inositol phosphate accumulation assay (A9_GPR40 cells); assay type: cell-based; set-up: expressed in transfected cells; host or cells: CHO cells stably transfected with GPR40 and aequorin; settings: inositol phosphate assay, A9_GPR40 cells, 1 hour; read-out: IP3 EC50
Protocol: Briefly, the Aequorin assays were performed on doubly stable CHO cells expressing GPR40 and Aequorin DNA. […] The luminescence was recorded over a period of 20 seconds with a Microlumat luminometer (Berthold). […] The inositol phosphate assay was performed on an A9 cell line stably transfected with GPR40 (A9_GPR40). The cells were incubated with different concentrations of compounds and [^3H] inositol accumulation was measured after 1 hour.
An A9 cell line stably transfected with GPR40 (A9_GPR40) was used in IP accumulation assays. A9_GPR40 cells were plated in 96-well plates containing 20,000 cells/well in DMEM containing 10% FBS. After the cells attached to the well surface, the media was replaced with inositol free DMEM containing 10% dialyzed FBS and 1 μCi, mL ^3H-inositol and incubated for 16 hours. Compounds were diluted in HBSS/10 mM LiCl containing a desired amount of HSA and added directly to cells. Following 1 hour incubation at 37° C., the media was replaced with 100 μL of 20 mM formic acid to quench the reaction. 50 μL of the extract was then added to 100 μL of SPA beads, incubated overnight, and measured on a TopCount the following day.

T1 sequence (O14842 whole entry): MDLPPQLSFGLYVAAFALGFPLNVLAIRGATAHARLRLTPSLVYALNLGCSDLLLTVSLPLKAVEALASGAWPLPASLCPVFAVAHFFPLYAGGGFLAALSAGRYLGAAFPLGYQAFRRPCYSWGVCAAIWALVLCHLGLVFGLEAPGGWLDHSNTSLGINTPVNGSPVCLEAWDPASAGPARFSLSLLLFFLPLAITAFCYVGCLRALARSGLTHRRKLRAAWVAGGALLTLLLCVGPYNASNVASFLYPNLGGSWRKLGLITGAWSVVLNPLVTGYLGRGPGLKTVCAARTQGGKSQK

SMILES | pEC50 [1] | pEC50 [2]
COc1ccc(F)c(-c2ccc(COc3cccc([C@H](C)CC(=O)O)c3)cc2C2=CCCC2(C)C)c1 (single isomer, unassigned) [Example 55, (3R)-3-(3-(((2-(5,5-Dimethyl-1-cyclopenten-1-yl)-2′-fluoro-5′-(methyloxy)-1,1′-biphenyl-4-yl)methyl)oxy)phenyl)butanoic acid or (3S)-3-(3-(((2-(5,5-dimethyl-1-cyclopenten-1-yl)-2′-fluoro-5′-(methyloxy)-1,1′-biphenyl-4-yl)methyl)oxy)phenyl)butanoic acid] | 6.00 to 7.00 | 7.00 to 8.00
C=C(C)[C@H](CC(=O)O)c1cccc(OCc2ccc(-c3cccc(OC)c3)c(C(C)(C)C)c2)c1 (single isomer, unassigned) [Example 56, (3S)-3-(3-(((2-(1,1-Dimethylethyl)-3′-(methyloxy)-1,1′-biphenyl-4-yl)methyl)oxy)phenyl)-4-methyl-4-pentenoic acid or (3R)-3-(3-(((2-(1,1-dimethylethyl)-3′-(methyloxy)-1,1′-biphenyl-4-yl)methyl)oxy)phenyl)-4-methyl-4-pentenoic acid] | 6.00 to 7.00 | 6.00 to 7.00
C=CC[C@H](CC(=O)O)c1cccc(OCc2ccc(-c3cccc(OC)c3)c(C(C)(C)C)c2)c1 (single isomer, unassigned) [Example 57, (3R)-3-(3-(((2-(1,1-dimethylethyl)-3′-(methyloxy)-1,1′-biphenyl-4-yl)methyl)oxy)phenyl)-5-hexenoic acid or (3S)-3-(3-(((2-(1,1-dimethylethyl)-3′-(methyloxy)-1,1′-biphenyl-4-yl)methyl)oxy)phenyl)-5-hexenoic acid] | 6.00 to 7.00 | 6.00 to 7.00
CCC[C@H](CC(=O)O)c1cccc(OCc2ccc(-c3cc(OC)ccc3F)c(C3=CCCC3(C)C)c2)c1 (single isomer, unassigned) [Example 59, (3R)-3-(3-(((2-(5,5-Dimethyl-1-cyclopenten-1-yl)-2′-fluoro-5′-(methyloxy)-1,1′-biphenyl-4-yl)methyl)oxy)phenyl)hexanoic acid or (3S)-3-(3-(((2-(5,5-dimethyl-1-cyclopenten-1-yl)-2′-fluoro-5′-(methyloxy)-1,1′-biphenyl-4-yl)methyl)oxy)phenyl)hexanoic acid] | 6.00 to 7.00 | 7.00 to 8.00
CCCCOc1cc(COc2cccc([C@H](CCC)CC(=O)O)c2)ccc1-c1cc(OC)ccc1F (single isomer, unassigned) [Example 60, (3R)-3-(3-(((2-(Butyloxy)-2′-fluoro-5′-(methyloxy)-1,1′-biphenyl-4-yl)methyl)oxy)phenyl)hexanoic acid or (3S)-3-(3-(((2-(butyloxy)-2′-fluoro-5′-(methyloxy)-1,1′-biphenyl-4-yl)methyl)oxy)phenyl)hexanoic acid] | 6.00 to 7.00 | 6.00 to 7.00

Continued, values first:

pEC50 [1] | pEC50 [2] | SMILES
6.00 to 7.00 | 7.00 to 8.00 | COc1ccc(F)c(-c2ccc(COc3cccc(C(C)CC(=O)O)c3)cc2/C=C/C(C)(C)C)c1 (single isomer, unassigned) [Example 64.4, (3R)-3-(3-(((2-((1E)-3,3-Dimethyl-1-butenyl)-2′-fluoro-5′-(methyloxy)-1,1′-biphenyl-4-yl)methyl)oxy)phenyl)butanoic acid or (3S)-3-(3-(((2-((1E)-3,3-dimethyl-1-butenyl)-2′-fluoro-5′-(methyloxy)-1,1′-biphenyl-4-yl)methyl)oxy)phenyl)butanoic acid]
6.00 to 7.00 | 7.00 to 8.00 | COc1ccc(F)c(-c2ccc(COc3cccc(C(C)CC(=O)O)c3)cc2C2=CCC(C)(C)CC2)c1 (single isomer, unassigned) [Example 64.5, (3R)-3-(3-(((2-(4,4-Dimethyl-1-cyclohexen-1-yl)-2′-fluoro-5′-(methyloxy)-1,1′-biphenyl-4-yl)methyl)oxy)phenyl)butanoic acid or (3S)-3-(3-(((2-(4,4-dimethyl-1-cyclohexen-1-yl)-2′-fluoro-5′-(methyloxy)-1,1′-biphenyl-4-yl)methyl)oxy)phenyl)butanoic acid]
6.00 to 7.00 | 7.00 to 8.00 | COc1ccc(F)c(-c2ccc(COc3cccc(C(C)CC(=O)O)c3)cc2CCC(C)(C)C)c1 (single isomer, unassigned) [Example 64.6, (3R)-3-(3-(((2-(3,3-Dimethylbutyl)-2′-fluoro-5′-(methyloxy)-1,1′-biphenyl-4-yl)methyl)oxy)phenyl)butanoic acid or (3S)-3-(3-(((2-(3,3-dimethylbutyl)-2′-fluoro-5′-(methyloxy)-1,1′-biphenyl-4-yl)methyl)oxy)phenyl)butanoic acid]
6.00 to 7.00 | 7.00 to 8.00 | COc1ccc(F)c(-c2ccc(COc3cccc(C(C)CC(=O)O)c3)cc2C2CCC(C)(C)CC2)c1 (single isomer, unassigned) [Example 64.7, (3R)-3-(3-(((2-(4,4-Dimethylcyclohexyl)-2′-fluoro-5′-(methyloxy)-1,1′-biphenyl-4-yl)methyl)oxy)phenyl)butanoic acid or (3S)-3-(3-(((2-(4,4-dimethylcyclohexyl)-2′-fluoro-5′-(methyloxy)-1,1′-biphenyl-4-yl)methyl)oxy)phenyl)butanoic acid]
6.00 to 7.00 | 6.00 to 7.00 | COc1ccc(F)c(-c2ccc(COc3cccc(C(C)CC(=O)O)c3)c(F)c2C(C)(C)C)c1 (single isomer, unassigned) [Example 64.10, (3R)-3-(3-(((2-(1,1-Dimethylethyl)-2′,3-difluoro-5′-(methyloxy)-1,1′-biphenyl-4-yl)methyl)oxy)phenyl)butanoic acid or (3S)-3-(3-(((2-(1,1-dimethylethyl)-2′,3-difluoro-5′-(methyloxy)-1,1′-biphenyl-4-yl)methyl)oxy)phenyl)butanoic acid]
6.00 to 7.00 | 6.00 to 7.00 | CCCC(C)(C)c1cc(COc2cccc(C(C)CC(=O)O)c2)ccc1-c1cc(OC)ccc1F (single isomer, unassigned) [Example 64.11, (3R)-3-(3-(((2-(1,1-Dimethylbutyl)-2′-fluoro-5′-(methyloxy)-1,1′-biphenyl-4-yl)methyl)oxy)phenyl)butanoic acid or (3S)-3-(3-(((2-(1,1-dimethylbutyl)-2′-fluoro-5′-(methyloxy)-1,1′-biphenyl-4-yl)methyl)oxy)phenyl)butanoic acid]
6.00 to 7.00 | 7.00 to 8.00 | COc1ccc(F)c(-c2ccc(COc3cccc(C(C)CC(=O)O)c3)cc2C2=CCCCCC2)c1 (single isomer, unassigned) [Example 64.12, (3R)-3-(3-(((2-(1-Cyclohepten-1-yl)-2′-fluoro-5′-(methyloxy)-1,1′-biphenyl-4-yl)methyl)oxy)phenyl)butanoic acid or (3S)-3-(3-(((2-(1-cyclohepten-1-yl)-2′-fluoro-5′-(methyloxy)-1,1′-biphenyl-4-yl)methyl)oxy)phenyl)butanoic acid]
6.00 to 7.00 | 7.00 to 8.00 | COc1ccc(F)c(-c2ccc(COc3cccc(C(C)CC(=O)O)c3)cc2C2=CCC(C(C)(C)C)CC2)c1 (single isomer, unassigned) [Example 64.13, (3R)-3-(3-(((2-(4-(1,1-Dimethylethyl)-1-cyclohexen-1-yl)-2′-fluoro-5′-(methyloxy)-1,1′-biphenyl-4-yl)methyl)oxy)phenyl)butanoic acid or (3S)-3-(3-(((2-(4-(1,1-dimethylethyl)-1-cyclohexen-1-yl)-2′-fluoro-5′-(methyloxy)-1,1′-biphenyl-4-yl)methyl)oxy)phenyl)butanoic acid]
6.00 to 7.00 | 6.00 to 7.00 | CCCCCc1cc(COc2cccc(C(C)CC(=O)O)c2)ccc1-c1cc(OC)ccc1F (single isomer, unassigned) [Example 64.14, (3R)-3-(3-(((2′-Fluoro-5′-(methyloxy)-2-pentyl-1,1′-biphenyl-4-yl)methyl)oxy)phenyl)butanoic acid or (3S)-3-(3-(((2′-fluoro-5′-(methyloxy)-2-pentyl-1,1′-biphenyl-4-yl)methyl)oxy)phenyl)butanoic acid]
6.00 to 7.00 | 7.00 to 8.00 | COc1ccc(F)c(-c2ccc(COc3cccc(C(C)CC(=O)O)c3)cc2CCC2CCCCC2)c1 (single isomer, unassigned) [Example 64.15, (3R)-3-(3-(((2-(2-Cyclohexylethyl)-2′-fluoro-5′-(methyloxy)-1,1′-biphenyl-4-yl)methyl)oxy)phenyl)butanoic acid or (3S)-3-(3-(((2-(2-cyclohexylethyl)-2′-fluoro-5′-(methyloxy)-1,1′-biphenyl-4-yl)methyl)oxy)phenyl)butanoic acid]

From patent US8030354B2, “Substituted biphenyl GPR40 modulators” (Amgen Inc., priority 2007, dated 2011)
